Assay results published in patent publication US20250090562A1, “METHODS, COMPOSITIONS AND USES RELATED TO THE TREATMENT AND PREVENTION OF LEIGH’S SYNDROME” (Stealth BioTherapeutics Inc., priority 2023, published 2025).

Assays:
Type in all cases: cell-based, human
[1] = system: Leigh (GM03672) fibroblasts; experiment: Erastin cytoprotection assay, Leigh fibroblasts; details: 2 μM erastin, 250 μM FAC, 50 μM AA, 10-1000 nM compound, 24 h
Experimental: (§1) Briefly, Healthy (GM08402) or Leigh (GM03672) fibroblasts were resuspended in assay medium, seeded at 10,000 cells per well in a clear, tissue cultured-treated, 96-well plate, and incubated at 37° C. overnight. Following the incubation, supernatant was manually aspirated from wells, taking care not to disrupt cells. Fibroblasts were co-treated in a final volume of 100 μL with 2 μM erastin (Millipore Corp., Cat #), 250 μM ferric ammonium citrate (FAC), 50 μM ascorbic acid (AA), and a titration of one of each of Compounds 1 to 4 or Vatiquinone ranging from 10 to 1000 nM. Following another 24-hour incubation at 37° C., cell viability was measured using the CellTiter-Glo Luminescent Cell Viability Kit (ProMega) per Manufacturer's instructions. Luminescence units were quantified by GEN5 software on a BioTek SYNERGY neo2 plate reader (LUM filter).
(§2) Briefly, erastin, like RSL3, is known to induce ferroptosis. […] Erastin was incubated with cell fibroblasts for 24 hours to induce ferroptosis. Cells were co-treated with each of Compounds 1 to 4, or Vatiquinone as the test articles. Test articles were administered at a range of concentrations to derive a curve. Cell viability was determined using a commercially available kit that measures ATP production. […] An increase in cell viability as determined by the assay is considered to be protective against ferroptosis.

[2] = system: 15-lipoxygenase (15-LO); experiment: 15(S)-HETE ELISA following RSL3 treatment, healthy fibroblasts; details: 700 nM RSL3, 1 μM compound, 24 h
Experimental: Samples for the 15(S)-HETE ELISA were generated by the RSL3 cytoprotection assay described above. Healthy or Leigh fibroblasts were resuspended in assay medium, seeded at 200,000 cells per well in a clear, tissue culture-treated, 24-well plate. Cells were incubated at 37° C. for 24 hours. Supernatant was aspirated from each well following the incubation.
Fibroblasts from both a healthy individual and a patient diagnosed with Leigh syndrome were examined (but not all compounds were examined in each cell type). Activation of ferroptosis has been implicated as a driver of epilepsy, which is commonly associated with Leigh syndrome. […] Kahn-Kirby et al. PLOS One. […] As a key regulator of ferroptosis, 15-LO serves as a rational therapeutic target in Leigh syndrome.

[3] = system: Healthy (GM08402) fibroblasts; experiment: Erastin cytoprotection assay, healthy fibroblasts; details: 2 μM erastin, 250 μM FAC, 50 μM AA, 10-1000 nM compound, 24 h
Experimental: as §1, §2

[4] = system: Leigh fibroblasts (GM03672); experiment: Mitochondrial membrane potential (TMRM flow cytometry) in RSL3-treated Leigh fibroblasts; details: 1 μM RSL3 with 1 μM compound, 4 h
Experimental: Leigh fibroblasts (GM03672) were seeded in a 24-well, tissue culture-treated plate in complete MEM (MEM+15% FBS+1% penicillin/streptomycin) at a density of 1×10^5 cells per 500 μL and incubated overnight at 37° C. at 5% CO2. Cells were treated for 4 hours at 37° C. with either 1 μM RSL3, 1 μM RSL3 with 1 μM Compound 3 or media for untreated cells. Following the incubation, supernatant was removed and cells were treated with 0.25% trypsin for 5 min at 37° C. Trypsin was neutralized with an equal part MEM. Cells were dislodged with gentle pipetting and pelleted at 300×g for 5 minutes. Pellets were resuspended in 500 μL Fluobrite DMEM and cells were transferred to a 96-well, v-bottom plate. Cells were stained with 20 nM MitoTracker Green and 100 nM tetramethylrhodamine methyl ester (TMRM) Samples were incubated for 25 minutes at 37° C. Each well was mixed immediately prior to analysis to resuspend settled cells. Fluorescence intensity was measured on the BD Accuri C6 Plus Flow Cytometer. A minimum of 10,000 events per sample was collected. Data analysis was performed using FloJo vs. 10. Gating was performed by establishing an initial forward scatter vs. side scatter gate. MitoTracker Green positive, TMRM positive cells were identified through subsequent gating. Median fluorescence intensity (MFI) of TMRM fluorescence was determined. Using GraphPad Prism 10, statistical significance between groups was determined by One-way ANOVA. A p-value of less than 0.05 was considered significant. Results are presented graphically in FIG. 20.

SMILES: CC1=C(C)C(=O)C(CC[C@@](C)(O)CC/C=C(\C)CCC=C(F)F)=C(C)C1=O [Compound 2]
- relative protective effect against erastin induced ferroptosis (cell viability, ATP) [1]: superior in their protective effect as compared with Vatiquinone or Compounds 1 or 4
- inhibition of 15-lipoxygenase (15(S)-HETE in supernatant) [2]: inhibited 15-lipoxygenase
- relative 15-LO inhibition (comparison between test articles) [2]: roughly equivalent protective effect
- relative protective effect against erastin induced ferroptosis (cell viability, ATP) [3]: superior in their protective effect as compared with Vatiquinone or Compounds 1 or 4

SMILES: CC1=C(C)C(=O)C(CC[C@@](C)(O)COCCC[Si](C)(C)C)=C(C)C1=O [Compound 3]
- relative protective effect against erastin induced ferroptosis (cell viability, ATP) [1]: superior in their protective effect as compared with Vatiquinone or Compounds 1 or 4
- inhibition of 15-lipoxygenase (15(S)-HETE in supernatant) [2]: inhibited 15-lipoxygenase
- relative 15-LO inhibition (comparison between test articles) [2]: superior to Compounds 2, 4 and Vatiquinone
- relative protective effect against erastin induced ferroptosis (cell viability, ATP) [3]: superior in their protective effect as compared with Vatiquinone or Compounds 1 or 4
- mitochondrial membrane potential (TMRM MFI), protection [4]: protective of the Leigh fibroblasts from the loss of mitochondrial membrane potential

SMILES: CC1=C(C)C(=O)C(CC[C@](C)(O)CCCCCCCCC(F)(F)F)=C(C)C1=O [Compound 4]
- relative protective effect against erastin induced ferroptosis (cell viability, ATP) [1]: about equally protective
- inhibition of 15-lipoxygenase (15(S)-HETE in supernatant) [2]: inhibited 15-lipoxygenase
- relative 15-LO inhibition (comparison between test articles) [2]: roughly equivalent protective effect
- relative protective effect against erastin induced ferroptosis (cell viability, ATP) [3]: about equally protective
- mitochondrial membrane potential (TMRM MFI), protection [4]: protective of the Leigh fibroblasts from the loss of mitochondrial membrane potential
